Data as given in patent US11957766B2, “HNQO1-activatable fluorescent probe for imaging cancer cells in-vitro and in-vivo” (Texas Tech University System, priority 2019, dated 2024).
Values joined by “and” are separate entries in the source; they are usually repeats but may differ in a detail not shown here. Equal entries are not always repeated.

How the values were obtained:
[1] = test system: subcutaneous U87MG tumor; assay: Fluorescence imaging of hNQO1 in subcutaneous U87MG tumor-bearing mice with NQ-DCP; assay type: in vivo
Procedure: (§1) Fluorescence Imaging of hNQO1 in U87MG Tumor-Bearing Mice. With the prominent performance of NQ-DCP in cellular fluorescence imaging, the inventors further applied this probe to evaluate its capacity for the noninvasive fluorescence imaging of hNQO1 in vivo. NQ-DCP (10 mg/kg, 50 μL) was intravenously injected into sub-cutaneous U87MG tumor-bearing mice. The whole-body fluorescence was imaged with a Caliper IVIS Spectral imaging system. […] The host organs and tumor from the mice administered with NQ-DCP were harvested and their fluorescence was analyzed ex vivo using the IVIS to confirm the tumor-selective targeting ability of NQ-DCP. […] The application of NQ-DCP to image hNQO1 activity was also investigated in intracranial U87MG tumor-bearing mice. Tumor xenografts were established by implanting exponentially growing U87MG-Luc cells by stereotaxic injection into mice brain and the tumor growth was assessed by quantitative bioluminescence using IVIS (in vivo imaging system) (FIG. 7C). […] Therefore, the inventors performed intracranial injection of NQ-DCP (100 μM, 5 μL) to both healthy and tumor-bearing mice, the brain was isolated after 30 min and fluorescence images acquired.
Four-week-old male and female NCG and athymic nude mice were housed in a micro ventilated caging system in a sterile environment and fed ad-libitum with standard irradiated research rodent diet and water. […]

[2] = target: NQO1 (Homo sapiens, UniProt P15559); assay: Spectroscopic response of NQ-DCP to hNQO1; assay type: biochemical
Sequence of NQO1 (P15559 whole entry): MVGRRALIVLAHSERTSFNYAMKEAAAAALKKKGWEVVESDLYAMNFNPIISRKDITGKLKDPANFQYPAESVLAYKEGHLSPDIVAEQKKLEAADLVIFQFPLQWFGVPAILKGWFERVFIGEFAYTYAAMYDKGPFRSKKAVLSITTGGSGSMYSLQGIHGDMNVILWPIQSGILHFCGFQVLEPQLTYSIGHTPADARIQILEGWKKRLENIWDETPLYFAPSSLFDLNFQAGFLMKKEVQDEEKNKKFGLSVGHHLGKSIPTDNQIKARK
Procedure: Spectroscopic Response of NQ-DCP to hNQO1. The spectroscopic response of the NQ-DCP probe to an hNQO1 enzyme in the presence of NADH was evaluated in a physiologically relevant buffer (0.1% BSA and 100 μM NADH containing PBS) to determine its ability to detect hNQO1. The absorption and fluorescence spectra of NQ-DCP in the absence and presence of hNQO1 are shown in FIGS. 2A and B. In the presence of hNQO1, although there was a distinct color change from yellow to red there was no difference found in the absorption maximum (425 nm) of NQ-DCP ([…]). Further, the reaction of NQ-DCP probe with hNQO1 produced a huge fluorescence enhancement at 565 nm with a large Stokes shift (140 nm) (FIG. 2B), which is favorable for sensitive detection and bioimaging analysis, because of a non-overlapping fluorescence emission. […] The inventors measured the fluorescence spectra of NQ-DCP (10 μm) following incubation with different concentrations of hNQO1 (0.12, 0.25, 0.5, 1.0, 1.5, 2.0, and 2.5 μg/mL (0.0038, 0.008, 0.016, 0.032, 0.048, 0.064, 0.08 μmol)) along with 100 μM NADH at pH 7.4 for 30 min. […] On incubation with hNQO1, the fluorescence intensity at 565 nm increased progressively with the NQO1 concentration and reached a maximum when the hNQO1 concentration was 2.5 μg/mL. The fluorescence intensity at 565 nm was linear with hNQO1 concentration, 0.25-2.0 μg/mL (FIG. 2D). The hNQO1 detection limit (LOD) of NQ-DCP was calculated to be as low as 0.095 μg/mL, based on the standard deviation of the response (Sy) and the slope of the calibration curve (S) according to the formula: LOD=3.3(Sy/S).
Spectroscopic Methods. For absorption and fluorescence measurements, all samples were first dissolved in 100% DMSO to obtain 10 mM stock solutions and then diluted to desired concentrations in PBS buffer containing 0.1% BSA for measurement. All spectroscopic measurements were performed under physiological conditions (pH 7.4 at room temperature. hNQO1 specific NQ-DCP activation was performed under philological conditions (PBS with 0.1% of BSA at 37° C.) in the presence of 100 μM NADH for 30 min. Time-dependent fluorescent intensity changes for different concentrations of […] in the presence of NQO1 (2.0 μg/mL) and 100 μM NADH were measured using Hitachi F-2500 Fluorescence spectrophotometer (λex=420 nm and λem=565 nm).

[3] = test system: intracranial U87MG tumor; assay: Fluorescence imaging of hNQO1 in intracranial U87MG tumor-bearing mice with NQ-DCP; assay type: in vivo
Procedure: as §1
Four-week-old male and female NCG and athymic nude mice were housed in a micro ventilated caging system in a sterile environment and fed ad-libitum with standard irradiated research rodent diet and water. To detect endogenous NQO1 activity, NQ-DCP (10 mg/kg) was dissolved PEG-400:EtOH:saline (57.1:14.3:28.6, v/v/v) and 50 μL given through intravenous injection and animals were imaged using IVIS Lumina XR Imaging system. To establish U87MG xenografts, a total of 5×10^6 cells (in 0.1 mL) were subcutaneously injected into the right inguinal area of the athymic nude mice. For establishing the orthotopic brain tumor model, the animals were anesthetized using 2% isoflurane and positioned in a Benchmark (Leica) stereotactic instrument. A 27-gauge needle was then used to drill a burr hole into the skull 0.5-mm anterior and 2-mm lateral to the bregma. U87MG-Luc2 cell suspension (2×10^5 cells in 5 μl PBS) was injected in the striatum at a depth of […] from the dural surface over 10 min. […] To detect endogenous NQO1 activity, orthotopic brain tumor models, NQ-DCP ([…]) was dissolved saline and 5 μL given through intracranial injection to both healthy and tumor-bearing mice. After 30 min of administration, brains were isolated and imaged using IVIS Lumina XR Imaging system.

[4] = intracranial injection 100 μM, 5 μL, brain isolated after 30 min

CC1=C(C)C(=O)C(C(C)(C)CC(=O)Oc2ccc(/C=C/C3=CC(=C(C#N)C#N)CC(C)(C)C3)cc2)=C(C)C1=O [NQ-DCP]
time of maximum fluorescence in the tumor ([1]; 10 mg/kg, 50 μL, intravenous): 30 min | ex vivo fluorescence in tumor and organs ([1]; organs harvested after intravenous NQ-DCP, 30 min): selectively observed in the tumor and not in any other major organs | Stokes-Shift [2]: 145 | λabs/em [2]: 420/465 | hNQO1 concentration range in which fluorescence intensity at 565 nm was linear ([2]; 10 μM probe, 100 μM NADH, 30 min): 0.25 to 2.0 µg/mL | hNQO1 detection limit (LOD) ([2]; 10 μM probe, 100 μM NADH, pH 7.4, 30 min, LOD=3.3(Sy/S)): 0.095 µg/mL | stability in the absence of hNQO1 ([2]; PBS with 0.1% BSA, 100 μM NADH, pH 7.4, 30 min, no hNQO1): highly stable | Stokes shift ([2]; after reaction with hNQO1): 145 nm and 140 nm | fluorescence enhancement (emission wavelength) ([2]; after reaction with hNQO1): 565 nm | absorption maximum ([2]; no difference in the presence of hNQO1): 425 nm | blood-brain barrier crossing ([3]; explanation offered ("perhaps") for lack of signal after systemic injection): inability of the NQ-DCP to cross the blood-brain barrier | ex vivo brain fluorescence, control healthy mouse [3, 4]: no fluorescence | ex vivo brain fluorescence, tumor-bearing mouse [3, 4]: bright fluorescence signal | fluorescence signal in intracranial tumors ([3]; systemic injections of the probe): not able to observe any fluorescence signal
